The text below walks through data of PubChem BioAssay (NCI).

Structures are written as SMILES.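 Five concentrations, 48 hours, 96-well plates. Definition used: TGI = concentration required for complete inhibition of growth.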 Where only a bound is given, the exact number is not on record here.

What all share (test): DTP human tumour cell line panel, 48 h
The subject of assay [1] is A498 renal.
Assay [2] relates to SF-268 CNS.
Assay [3] concerns OVCAR-5 ovarian.
Assay [4] concerns PC-3 prostate.
The test system of assay [5] is HS 578T breast.
In assay [6] the test system is MDA-N.
The subject of assay [7] is HCT-116 colon.
Assay [8] concerns K-562 leukemia.
The subject of assay [9] is NCI/ADR-RES ovarian.
In assay [10] the test system is SK-OV-3 ovarian.

What is called TGI is the concentration at which net growth stops. High values mean lower sensitivity of the cells, low ones greater sensitivity of the cells. Consider `CCOC(=O)CC[C@H](N)C(=O)N[C@H](Cc1ccc(N(CCCl)CCCl)cc1)C(=O)OCC`, for which the TGI in [1] is 74.5 µM; in assay [2] it was 11.3 µM; in assay [3], 14.7 µM; in [4], 17.7 µM; in assay [5], 6.64 µM; in [6], more than 43.4 µM. The TGI in assay [7] was more than 36.2 µM; in [8] it was more than 100 µM; in assay [9] it was 11.3 µM; in assay [10] it was 11.7 µM.

With `N=C(c1cccs1)C1(N2CCCCC2)CCCCC1`, the TGI in [1] is 34 µM; in [2] it was 50.8 µM; in [3] it was 34.6 µM; in assay [4] it was 81.8 µM; in assay [5], more than 100 µM; in [6], more than 100 µM. For the same molecule, the concentration for total growth inhibition (TGI) is more than 100 µM in assay [7], 32 µM in assay [8], 44.7 µM in assay [9] and 46.8 µM in [10].

Turning to `Cc1cc(O)c(C(C)C)cc1N=Cc1ccccc1O`, the total growth inhibition concentration (TGI) was 66.2 µM in assay [1]; 21.4 µM in assay [2]; 41.2 µM in assay [3]; 22.4 µM in [4]; more than 46.4 µM in assay [5]; 17 µM in [6]. The concentration for total growth inhibition (TGI) in assay [7] is 13.5 µM; in [8] it was more than 22.3 µM; in assay [9], more than 67 µM; in [10] it was 28.8 µM.

Regarding `O=[N+]([O-])c1cc(Cl)ccc1S(=O)(=O)N1CCCc2cc(Cl)ccc21`, the TGI in [1], in assay [2], in assay [3], in assay [4], in [5] and in assay [6] was more than 100 µM each time. In addition, the TGI in assay [7], in assay [8], in [9] and in assay [10] was more than 100 µM each time.

On to `CC(=O)N(CN1C(=O)CCC1C(=O)O)c1ccccc1Cl` (centres undefined), for which the TGI in [1], in assay [2], in assay [3], in [4], in assay [5] and in [6] was more than 100 µM in each case. Besides, the TGI in assay [7], in assay [8], in [9] and in assay [10] was more than 100 µM throughout.

In the case of `COc1ccc(C[C@@H]2OC3(C=CC(=O)C=C3)O[C@H]2Cc2ccc(OC)cc2)cc1`, the TGI came out at 14.8 µM in assay [1]; 3.07 µM in [2]; 2.05 µM in [3]; 3.47 µM in assay [4]; 23.3 µM in assay [5]; 1.62 µM in assay [6]. Also, the TGI in [7] is 0.33 µM; in assay [8], more than 100 µM; in assay [9], 2.64 µM; in assay [10], 13.5 µM.

As for `Cc1ncc([N+](=O)[O-])n1CCNC(=O)CCCCCn1ccnc1[N+](=O)[O-]`, the TGI in assay [1], in assay [2], in assay [3], in [4], in assay [5] and in assay [6] was more than 100 µM in each case. The total growth inhibition concentration (TGI) in [7], in assay [8], in assay [9] and in assay [10] was more than 100 µM throughout.

`CC1(C)c2ccccc2C(O)C12CCC(=O)CC2` (centres undefined): the TGI in assay [1], in [2], in assay [3], in assay [4], in assay [5] and in assay [6] was more than 100 µM in each case. The TGI in assay [7] is 23.2 µM; in assay [8], more than 100 µM; in [9], more than 100 µM; in assay [10] it was more than 100 µM.

Turning to `CN(C)CCNc1nc2c(no[n+]2[O-])c2ccccc12`, the total growth inhibition concentration (TGI) in assay [1] is 31.6 µM; in assay [2], more than 100 µM; in assay [3], more than 100 µM; in assay [4], 89.5 µM; in assay [5], 76.6 µM; in assay [6], 91.4 µM. In addition, the total growth inhibition concentration (TGI) in assay [7] came to 52.9 µM; in assay [8], 87.7 µM; in [9], 58.7 µM; in [10], 98.8 µM.

`C=C1c2nc3ccccc3n2C=C(c2ccc(OC)cc2)N1c1ccc(OCCN2CCOCC2)cc1`: the concentration for total growth inhibition (TGI) in assay [1] is more than 100 µM; in assay [2], more than 31.9 µM; in assay [3] it was more than 100 µM; in [4], more than 100 µM; in assay [5], more than 40 µM; in [6], more than 100 µM. In addition, the TGI in assay [7], in [8], in [9] and in assay [10] was more than 100 µM throughout.

Turning to `CCN(CC)CCC(=O)c1ccc(Oc2ccc(F)cc2)cc1`, the total growth inhibition concentration (TGI) worked out at 35.5 µM in assay [2]; 35 µM in assay [3]; 71.9 µM in assay [4]; 60.2 µM in assay [5]; 31.9 µM in [6]; 30.3 µM in [7]. The TGI in [8] is more than 100 µM; in [9] it was 83.4 µM; in assay [10], more than 100 µM.

Consider `Cc1ccc2c(=O)c(-c3n[nH]c(=S)s3)c[nH]c2n1`, for which the TGI in assay [1], in [2], in assay [3], in [4], in assay [5] and in assay [6] was more than 100 µM each time. The total growth inhibition concentration (TGI) in [7], in assay [8] and in assay [9] was more than 100 µM in each case.

With `COc1ccccc1NS(=O)(=O)c1ccc2ncn(NS(=O)(=O)c3ccc(Cl)cc3)c(=O)c2c1`, the TGI in assay [2], in assay [3], in assay [4], in [5], in [6] and in [7] was more than 100 µM in each case. For the same molecule, the TGI in assay [8], in [9] and in [10] was more than 100 µM throughout.

In the case of `CC(=O)OCC1OC(N2C(S)=C(C#N)C(c3ccco3)C(C(C)=O)=C2c2ccccc2)C(OC(C)=O)C(OC(C)=O)C1OC(C)=O` (centres undefined), the TGI in assay [1] is more than 100 µM; in [2], more than 100 µM; in assay [3], more than 100 µM; in assay [4] it was more than 100 µM; in assay [5], 48.4 µM; in [6], more than 100 µM. The concentration for total growth inhibition (TGI) in [7], in [8] and in assay [9] was more than 100 µM each time.

With `O=C(O)CC(O)(C(=O)O)C(O)C(=O)O` (centres undefined), the total growth inhibition concentration (TGI) is more than 1000 µM in assay [2]; more than 1000 µM in assay [3]; more than 1000 µM in assay [4]; 867 µM in [5]; more than 1000 µM in assay [6]; more than 1000 µM in assay [7]. The concentration for total growth inhibition (TGI) in [8], in [9] and in assay [10] was more than 1000 µM in each case.

As for `C#CCOC(=O)C(N)CCSC` (centres undefined), the TGI in assay [1], in assay [2], in assay [3], in [4], in assay [5] and in assay [6] was more than 100 µM throughout. Also, the TGI in assay [7], in [9] and in assay [10] was more than 100 µM in each case.

As to `C=CCN1CCC2(CC1)NC(=O)c1ccccc1O2`, the TGI in assay [2], in assay [3], in assay [4], in assay [5], in assay [6] and in [7] was more than 100 µM throughout. The TGI in assay [8], in assay [9] and in [10] was more than 100 µM throughout.

As to `CSC1=C(C(=O)Nc2ccccc2)C(N)=NC1=O`, the total growth inhibition concentration (TGI) in assay [1], in assay [2], in assay [4], in assay [5], in assay [6] and in [7] was more than 100 µM in each case. Besides, the concentration for total growth inhibition (TGI) in [8], in assay [9] and in [10] was more than 100 µM throughout.

For `CC(/C=N/NC1=NCCCN1)=N\NC1=NCCCN1`, the total growth inhibition concentration (TGI) in assay [2], in [3], in [4], in assay [5], in [6] and in [7] was more than 100 µM throughout. The TGI in assay [8], in [9] and in [10] was more than 100 µM in each case.

On to `Nc1ccc(-c2nc3ccccc3s2)cc1Br`, for which the concentration for total growth inhibition (TGI) in assay [1] is more than 32.5 µM; in assay [2] it was more than 100 µM; in assay [3] it was more than 100 µM; in [4], more than 100 µM; in assay [5] it was more than 100 µM; in assay [6], more than 100 µM. The TGI in assay [8], in [9] and in assay [10] was more than 100 µM each time.

Take `C/C=C1\CC(C(=O)OCC)CCCCCCCCCCC1=O` (centres undefined): the total growth inhibition concentration (TGI) in assay [1], in assay [2], in assay [3], in assay [4], in assay [5] and in [6] was more than 100 µM throughout. The concentration for total growth inhibition (TGI) in [7], in assay [9] and in assay [10] was more than 100 µM throughout.
